Data taken from patent publication US20250320206A1, “STAT6 DEGRADERS” (Gilead Sciences, Inc., priority 2024, published 2025).

Tests used:
[1] = target: T1, STAT6 (Homo sapiens, UniProt P42226); experiment: Stat6 Degrader Assay (HiBiT based, HeLa LgBiT clone 4.14); assay type: cell-based; settings: HeLa LgBiT clone 4.14 HiBiT-STAT6, 4-24 h incubation; values given for compounds with >80% Emax; geometric mean; read-out: STAT6 degradation DC50
T1 construct: These cells express endogenous STAT6; host or cells: HeLa LgBiT clone 4.14
T1 sequence (P42226 1-847): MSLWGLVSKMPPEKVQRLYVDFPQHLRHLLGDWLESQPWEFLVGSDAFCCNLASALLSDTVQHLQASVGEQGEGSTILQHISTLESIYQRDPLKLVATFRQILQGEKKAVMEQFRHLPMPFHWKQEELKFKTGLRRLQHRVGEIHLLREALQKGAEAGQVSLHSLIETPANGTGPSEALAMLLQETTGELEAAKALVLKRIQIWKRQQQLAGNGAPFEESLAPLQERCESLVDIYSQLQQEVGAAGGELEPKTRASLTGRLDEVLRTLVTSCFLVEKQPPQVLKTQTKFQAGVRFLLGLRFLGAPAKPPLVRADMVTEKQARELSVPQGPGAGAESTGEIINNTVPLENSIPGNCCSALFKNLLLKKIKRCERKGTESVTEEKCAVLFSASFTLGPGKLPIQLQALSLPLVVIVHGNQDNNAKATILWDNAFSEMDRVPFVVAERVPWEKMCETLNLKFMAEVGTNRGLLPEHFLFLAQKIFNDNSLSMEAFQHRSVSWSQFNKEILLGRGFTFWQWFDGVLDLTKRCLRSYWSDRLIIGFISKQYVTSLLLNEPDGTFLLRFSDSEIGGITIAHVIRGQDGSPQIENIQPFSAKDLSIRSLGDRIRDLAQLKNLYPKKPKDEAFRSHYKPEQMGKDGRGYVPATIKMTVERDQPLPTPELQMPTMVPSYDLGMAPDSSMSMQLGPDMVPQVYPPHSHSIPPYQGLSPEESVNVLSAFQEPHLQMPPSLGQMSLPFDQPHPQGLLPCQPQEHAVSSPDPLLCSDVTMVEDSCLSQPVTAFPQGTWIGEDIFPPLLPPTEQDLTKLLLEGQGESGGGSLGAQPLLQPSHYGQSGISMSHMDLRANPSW
Method in brief: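 Luminescence from HiBiT-STAT6 complementing stably expressed LgBiT in HeLa clone 4.14 reports remaining STAT6 protein. Cells (5000/well) exposed to compound for 4-24 h at 37° C; read 0.5 h after Nano-Glo addition. 100% degradation window set with 50 μM terfenadine; percent degradation plotted against concentration.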

[2] = tested on: Eotaxin-3 release in human whole blood stimulated with IL-4; experiment: Human Whole Blood Eotaxin-3 Assay (IL-4 stimulated eotaxin-3 release); assay type: cell-based; settings: IL-4 stimulation, 48 h, values given for compounds with >80% Emax, geometric mean
Method in brief: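 Eotaxin-3 (CCL26) release measured by MSD kit in plasma supernatant after 48 h IL-4 stimulation ([…]) of human whole blood. Compounds added in triplicate 4-fold dilutions 2 h before stimulation; 0.5% DMSO final, 37° C, 5% CO2.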

Row | DC50 [1] [nM] | EC50 [2] [nM] | SMILES
1 | 5.7 | 21.7 | CNc1cc(=O)n(-c2ccnc3c2cc([C@H](C)N2CC=C(c4c(C)cc(C(=O)N5CCC(CN6CCN(c7ccc8c(c7)C7(CC7)C(=O)N8[C@H]7CCC(=O)NC7=O)CC6)CC5)cc4F)CC2)n3C)cc1F (single isomer, unassigned) [Example 3u291]
2 | 5.1 | 6.9 | CNc1cc(=O)n(-c2ccnc3c2cc([C@H](C)N2CC=C(c4c(C)cc(C(=O)N5CCC(CN6CCN(c7ccc8c(c7)C7(CC7)C(=O)N8[C@@H]7CCC(=O)NC7=O)CC6)CC5)cc4F)CC2)n3C)cc1F (single isomer, unassigned) [Example 3u292]
3 | 1 | 0.8 | CNc1ccn(-c2ccnc3c2cc([C@H](C)N2CC=C(c4c(C)cc(C(=O)N5CCC(CN6CCN(c7ccc8c(c7)n(C)c(=O)n8[C@H]7CCC(=O)NC7=O)CC6)CC5)cc4F)CC2)n3C)c(=O)c1 (single isomer, unassigned) [Example 3u293]
4 | 0.8 | 0.3 | CNc1ccn(-c2ccnc3c2cc([C@H](C)N2CC=C(c4c(C)cc(C(=O)N5CCC(CN6CCN(c7ccc8c(c7)n(C)c(=O)n8[C@@H]7CCC(=O)NC7=O)CC6)CC5)cc4F)CC2)n3C)c(=O)c1 (single isomer, unassigned) [Example 3u294]
5 | 2.7 | 5.8 | CNc1cc(=O)n(-c2ccnc3c2cc([C@H](C)N2CC=C(c4c(C)cc(C(=O)N5CCC(CN6CCN(c7ccc8c(c7)n(C)c(=O)n8[C@H]7CCC(=O)NC7=O)CC6)CC5)cc4F)CC2)n3C)cc1F (single isomer, unassigned) [Example 3u296]
6 | 2.2 | 3.2 | CNc1cc(=O)n(-c2ccnc3c2cc([C@H](C)N2CC=C(c4c(C)cc(C(=O)N5CCC(CN6CCN(c7ccc8c(c7)n(C)c(=O)n8[C@@H]7CCC(=O)NC7=O)CC6)CC5)cc4F)CC2)n3C)cc1F (single isomer, unassigned) [Example 3u297]
7 | 1.4 | 1.1 | CNc1ccn(-c2ccnc3c2cc([C@H](C)N2CC=C(c4c(C)cc(C(=O)N5CCC(CN6CCN(c7cc8c(cc7F)n([C@H]7CCC(=O)NC7=O)c(=O)n8C)CC6)CC5)cc4F)CC2)n3C)c(=O)c1 (single isomer, unassigned) [Example 3u307]
8 | 0.7 | 1.3 | CNc1ccn(-c2ccnc3c2cc([C@H](C)N2CC=C(c4c(C)cc(C(=O)N5CCC(CN6CCN(c7cc8c(cc7F)n([C@@H]7CCC(=O)NC7=O)c(=O)n8C)CC6)CC5)cc4F)CC2)n3C)c(=O)c1 (single isomer, unassigned) [Example 3u308]
9 | 0.5 | 0.5 | CNc1ccn(-c2ccnc3c2cc([C@H](C)N2CCC(c4ccc(C(=O)N5CCC(CN6CCN(Cc7ccc8c(c7)n(C)c(=O)n8C7CCC(=O)NC7=O)C[C@@H]6C)CC5)cc4)CC2)n3C)c(=O)c1 (stereo partly drawn) [Example 3e39, 3-(3-methyl-5-(((S)-3-methyl-4-((1-(4-(1-((S)-1-(1-methyl-4-(4-(methylamino)-2-oxopyridin-1 (2H)-yl)-1H-pyrrolo[2,3-b]pyridin-2-yl)ethyl)piperidin-4-yl)benzoyl)piperidin-4-yl)methyl)piperazin-1-yl)methyl)-2-oxo-2,3-dihydro-1H-benzo[d]imidazol-1-yl)piperidine-2,6-dione]
10 | 0.7 | 0.3 | C[C@H]1CN(Cc2ccc3c(c2)n(C)c(=O)n3C2CCC(=O)NC2=O)CCN1CC1CCN(C(=O)c2ccc(C3CCN([C@@H](C)c4cc5c(-n6ccc7c(c6=O)CCN7)ccnc5n4C)CC3)cc2)CC1 (stereo partly drawn) [Example 3e44, 3-(3-methyl-5-(((S)-3-methyl-4-((1-(4-(1-((S)-1-(1-methyl-4-(4-oxo-1,2,3,4-tetrahydro-5H-pyrrolo[3,2-c]pyridin-5-yl)-1H-pyrrolo[2,3-b]pyridin-2-yl)ethyl)piperidin-4-yl)benzoyl)piperidin-4-yl)methyl)piperazin-1-yl)methyl)-2-oxo-2,3-dihydro-1H-benzo[d]imidazol-1-yl)piperidine-2,6-dione]
11 | 3.2 | 4.8 | CNc1nc(=O)n(-c2ccnc3c2cc(CN2CCC(c4c(F)cc(C(=O)N5CCC(CN6CCN(Cc7ccc8c(c7)C7(CC7)C(=O)N8C7CCC(=O)NC7=O)C[C@@H]6C)CC5)cc4F)CC2)n3C)cc1F (stereo partly drawn) [Example 3h10, 3-(5′-(((S)-4-((1-(3,5-difluoro-4-(1-((4-(5-fluoro-4-(methylamino)-2-oxopyrimidin-1 (2H)-yl)-1-methyl-1H-pyrrolo[2,3-b]pyridin-2-yl)methyl)piperidin-4-yl)benzoyl)piperidin-4-yl)methyl)-3-methylpiperazin-1-yl)methyl)-2′-oxospiro[cyclopropane-1,3′-indolin]-1′-yl)piperidine-2,6-dione]
12 | 3.2 | 1.3 | CNc1ccn(-c2ccnc3c2cc(CN2CCC(c4c(F)cc(C(=O)N5CCC(CN6CCN(Cc7ccc8c(c7)C7(CC7)C(=O)N8C7CCC(=O)NC7=O)C[C@@H]6C)CC5)cc4F)CC2)n3C)c(=O)n1 (stereo partly drawn) [Example 3h12, 3-(5′-(((S)-4-((1-(3,5-difluoro-4-(1-((1-methyl-4-(4-(methylamino)-2-oxopyrimidin-1 (2H)-yl)-1H-pyrrolo[2,3-b]pyridin-2-yl)methyl)piperidin-4-yl)benzoyl)piperidin-4-yl)methyl)-3-methylpiperazin-1-yl)methyl)-2′-oxospiro[cyclopropane-1,3′-indolin]-1′-yl)piperidine-2,6-dione]
13 | 0.9 | 1 | CNc1ccn(-c2ccnc3c2cc(CN2CC=C(c4c(F)cc(C(=O)N5CCC(CN6CCN(Cc7ccc8c(c7)n(C)c(=O)n8C7CCC(=O)NC7=O)C[C@@H]6C)CC5)cc4F)CC2)n3C)c(=O)c1 (stereo partly drawn) [Example 3u1, 3-(5-(((S)-4-((1-(3,5-difluoro-4-(1-((1-methyl-4-(4-(methylamino)-2-oxopyridin-1 (2H)-yl)-1H-pyrrolo[2,3-b]pyridin-2-yl)methyl)-1,2,3,6-tetrahydropyridin-4-yl)benzoyl)piperidin-4-yl)methyl)-3-methylpiperazin-1-yl)methyl)-3-methyl-2-oxo-2,3-dihydro-1H-benzo[d]imidazol-1-yl)piperidine-2,6-dione]
14 | 3.8 | 4.9 | CNc1cc(=O)n(-c2ccnc3c2cc([C@H](C)N2CC=C(c4c(F)cc(C(=O)N5CCC(CN6CCN(Cc7ccc8c(c7)C(C)(C)C(=O)N8C7CCC(=O)NC7=O)C[C@@H]6C)CC5)cc4F)CC2)n3C)cc1F (stereo partly drawn) [Example 3u9, 3-(5-(((S)-4-((1-(3,5-difluoro-4-(1-((S)-1-(4-(5-fluoro-4-(methylamino)-2-oxopyridin-1 (2H)-yl)-1-methyl-1H-pyrrolo[2,3-b]pyridin-2-yl)ethyl)-1,2,3,6-tetrahydropyridin-4-yl)benzoyl)-piperidin-4-yl)methyl)-3-methylpiperazin-1-yl)methyl)-3,3-dimethyl-2-oxoindolin-1-yl)piperidine-2,6-dione]
15 | 0.7 | 1 | CNc1cc(=O)n(-c2ccnc3c2cc([C@H](C)N2CC=C(c4c(C)cc(C(=O)N5CCC(CN6CCN(Cc7ccc8c(c7)n(C)c(=O)n8C7CCC(=O)NC7=O)CC6)CC5)cc4F)CC2)n3C)cc1F (stereo partly drawn) [Example 3u13, 3-(5-((4-((1-(3-fluoro-4-(1-((S)-1-(4-(5-fluoro-4-(methylamino)-2-oxopyridin-1 (2H)-yl)-1-methyl-1H-pyrrolo[2,3-b]pyridin-2-yl)ethyl)-1,2,3,6-tetrahydropyridin-4-yl)-5-methylbenzoyl)-piperidin-4-yl)methyl)piperazin-1-yl)methyl)-3-methyl-2-oxo-2,3-dihydro-1H-benzo[d]imidazol-1-yl)piperidine-2,6-dione]
16 | 11.2 | 12.1 | CNc1ccn(-c2ccnc3c2cc(CN2CCC(c4c(F)cc(C(=O)N5CCC(CN6CCN(Cc7ccc8c(c7)C(C)(C)C(=O)N8C7CCC(=O)NC7=O)CC6)CC5)cc4F)CC2)n3C)c(=O)c1 (centres unmarked) [Example 3u16, 3-(5-((4-((1-(3,5-difluoro-4-(1-((1-methyl-4-(4-(methylamino)-2-oxopyridin-1 (2H)-yl)-1H-pyrrolo[2,3-b]pyridin-2-yl)methyl)piperidin-4-yl)benzoyl)piperidin-4-yl)methyl)piperazin-1-yl)-methyl)-3,3-dimethyl-2-oxoindolin-1-yl)piperidine-2,6-dione]
